Test results taken from patent US8450348B2, “Derivatives of squaric acid with anti-proliferative activity” (Forma TM, LLC, priority 2007, dated 2013).

Experiments:
Format in all cases: cell-based
A2780 [1] = assay: SRB assay, % inhibition of tumor cell growth (Example 61); details: Homo sapiens, 48 hours, vs DMSO-treated cells
Method: (§1) 3,000-15,000 cells/well were exposed to the test compounds at a concentration of 1 μM for 48 hours, and cytotoxicity was measured using the SRB assay according to Shekan et al (J Natl Cancer Inst (1990) 82, 1107-112). Briefly, cells were plated in 96 well dishes 24 hours prior to compound addition. The assay was terminated with the addition of cold TCA to a final concentration of 10% and the plates were incubated for one hour at 4° C. The plates were then washed 5 times with water and 100 μl of a Sulforhodamine B solution ([…]) was added to each well. The plate was then incubated for 10 minutes at room temperature before removal of unbound dye by washing with 1% acetic acid. The bound dye was solubilized with 10 mM Trizma base and the absorbance read at OD570. Inhibitory activity of the compounds was calculated as % inhibition compared to cells treated with the solvent (DMSO). Table 2 represents the growth inhibitory activity of certain compounds of the invention across a number of tumor cell lines.

HCT-116 [2] = assay: as above; details: Homo sapiens, 48 hours, vs DMSO-treated cells
Method: as §1

PC-3 = assay: as above; details: Homo sapiens, 48 hours, vs DMSO-treated cells
Method: as §1

SW-620 [3] = assay: as above; details: Homo sapiens, 48 hours, vs DMSO-treated cells
Method: as §1

A2780 [4] = assay: IC50 determination, SRB assay (Example 62); details: Homo sapiens, estimated from fitted curve, growth inhibition
Method: as §1
(§2) The assay was performed similar to example 61. However, test compounds were added at various concentrations, such as from 0.001 to about 0.1 μM, from 0.1 to about 10 μM, or from 1 to about 10 μM, as the need may be, in order to estimate the IC50 values. IC50 values were determined by plotting the percentage inhibitory activity for each concentration, fitting a curve using appropriate software and estimating the concentration at which 50% inhibition of growth would occur.

HCT-116 [5] = assay: IC50 determination, SRB assay (Example 62); details: Homo sapiens, estimated from fitted curve, growth inhibition
Method: as §1, §2

MCF7 [6] = assay: IC50 determination, SRB assay (Example 62); details: Homo sapiens, estimated from fitted curve, growth inhibition
Method: as §1, §2

A-549 = assay: SRB assay, % inhibition of tumor cell growth (Example 61); details: Homo sapiens, A549, 48 hours, vs DMSO-treated cells
Method: as §1

MCF7 [7] = assay: as above; details: Homo sapiens, 48 hours, vs DMSO-treated cells
Method: as §1

SW-620 [8] = assay: IC50 determination, SRB assay (Example 62); details: Homo sapiens, estimated from fitted curve, growth inhibition
Method: as §1, §2

| IC50 (HCT-116 [5]) | IC50 (SW-620 [8]) | Compound | inhibition at 1 µM (A2780 [1]) | inhibition at 1 µM (HCT-116 [2]) | inhibition at 1 µM (PC-3) | inhibition at 1 µM (SW-620 [3]) | IC50 (A2780 [4]) | IC50 (MCF7 [6]) | inhibition at 1 µM (A-549) | inhibition at 1 µM (MCF7 [7]) |
| --- | --- | --- | --- | --- | --- | --- | --- | --- | --- | --- |
| – | – | O=c1c(NCc2ccc(Oc3ccccc3)cc2)c(Nc2cccnc2)c1=O [SQ-34, 3-(4-Phenoxy-benzylamino)-4-(pyridin-3-ylamino)-cyclobut-3-ene-1,2-dione] | > 20% | > 20% | > 0% | 0% | – | – | 0% | – |
| < 0.1 µM | < 2 µM | O=c1c(NCCc2ccc(Oc3ccccc3)cc2)c(Nc2cccnc2)c1=O [SQ-5, 3-[2-(4-Phenoxyphenyl)-ethylamino]-4-(pyridin-3-yl-amino)-cyclobut-3-ene-1,2-dione] | > 80% | > 80% | > 50% | 0% | – | < 10 µM | – | > 50% |
| < 0.1 µM | < 0.5 µM | O=c1c(NCCCCCCOc2ccc(Cl)c(Cl)c2)c(Nc2ccncc2)c1=O [SQ-15] | > 80% | > 80% | > 50% | > 20% | – | – | > 20% | > 20% |

| Compound | IC50 (HCT-116 [5]) | IC50 (SW-620 [8]) | inhibition at 1 µM (A2780 [1]) | inhibition at 1 µM (HCT-116 [2]) | inhibition at 1 µM (PC-3) | inhibition at 1 µM (SW-620 [3]) | IC50 (A2780 [4]) | IC50 (MCF7 [6]) | inhibition at 1 µM (A-549) | inhibition at 1 µM (MCF7 [7]) |
| --- | --- | --- | --- | --- | --- | --- | --- | --- | --- | --- |
| O=c1c(NCCCCCCOc2ccc(Cl)cc2)c(Nc2ccncc2)c1=O [SQ-7B] | < 0.1 µM | – | > 80% | > 80% | > 50% | > 50% | < 0.1 µM | < 0.1 µM | – | – |
